Source: patent US11365194B2, “Analgesic drug using PAC1 receptor antagonistic drug” (KAGOSHIMA UNIVERSITY, priority 2017, dated 2022)

What was measured:
[1] = biological target: T1, mouse VPAC1 receptor-expressing CHO cell (VPAC1/CHO cell) (Mus musculus, UniProt P97751); test: CREB phosphorylation by PACAP stimulus, Western blot, VPAC1/CHO cell; format: cell-based; conditions: compound 10 μM to 10 nM
T1 construct: expressed in transfected cells; host or cells: CHO cells
T1 sequence (P97751 31-459): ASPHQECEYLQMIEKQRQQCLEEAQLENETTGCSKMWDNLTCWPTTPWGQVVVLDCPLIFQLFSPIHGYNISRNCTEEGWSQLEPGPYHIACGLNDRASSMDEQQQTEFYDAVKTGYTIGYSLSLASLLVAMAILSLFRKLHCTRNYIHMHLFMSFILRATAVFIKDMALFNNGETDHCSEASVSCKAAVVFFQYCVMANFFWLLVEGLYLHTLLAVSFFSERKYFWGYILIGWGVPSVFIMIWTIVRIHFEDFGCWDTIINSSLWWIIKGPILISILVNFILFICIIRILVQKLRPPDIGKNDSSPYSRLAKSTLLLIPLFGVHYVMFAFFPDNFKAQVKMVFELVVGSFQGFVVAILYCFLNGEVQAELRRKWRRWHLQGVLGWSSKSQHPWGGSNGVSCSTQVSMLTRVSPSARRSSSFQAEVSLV
Experimental: The effect of each compound on the phosphorylation of CREB (cAMP-responsive element-binding protein) produced by a PACAP stimulus was examined by Western blot analysis using an anti-phosphorylated CREB (pCREB) antibody with a mouse PAC receptor-expressing CHO cell (PAC1/CHO cell) and a mouse VPAC1 receptor-expressing CHO cell (VPAC1/CHO cell).
Specifically, treatment with a compound (PA-8, PA-9, compounds 2j, 20 and 3d) at 10 μM to 10 nM or a solvent therefor (VEH: 0.1% DMSO-containing phosphate buffer solution) was performed for 30 minutes, 1 nM PACAP was then added, and protein was recovered within 30 minutes after a PACAP stimulus.

[2] = system: spontaneous pain-like behavior induced by PACAP intrathecal administration; test: Spontaneous pain-like behavior induced by PACAP intrathecal administration; format: in vivo, mouse; conditions: simultaneous i.t. with PACAP (100 pmol), counted for 30 minutes
Experimental: When PACAP (100 pmol/5 L) is intrathecally administered to a mouse in a single dose (single i.t. injection), spontaneous pain-like behavior in which the mouse licks or bites the rear half of the body occurs about 5 minutes after the administration (and continues for several hours) (Ohnou et al. J. Pharmacol. Sci. 130, 194-203, 2016). […] Male ddY mice (6 to 12 weeks old) were used, and the behaviors were taken on video. The number of times of spontaneous pain-like behaviors for 30 minutes after the administration was counted.

[3] = system: mechanical allodynia induced by PACAP intrathecal administration; test: Mechanical allodynia induced by PACAP intrathecal administration (von Frey test); format: in vivo, mouse; conditions: 10 or 100 pmol, simultaneous i.t.; FIGS. 5A and B
Experimental: When single i.t. administration of PACAP (100 pmol/5 L) to mouse was performed, mechanical stimulus sensitive phenomenon (mechanical allodynia) occurred over a long period of time (for at least three months after the administration) (Non Patent Literature 1). […] The mechanical sensitive phenomenon induced by PACAP was not suppressed in an example in which a solvent (VEH: 0.2% DMSO-containing artificial cerebrospinal fluid) was used instead of the compounds.
(§1) Male ddY mice (6 to 12 weeks old) were used, and the threshold to a mechanical stimulus was evaluated by the vonFrey test. Specifically, the 50% withdrawal reflex threshold (Threshold) was calculated in accordance with the method of Chaplan et al. (Chaplan et al., J. Neurosci. Meth. 53, 55-63, 1994). Each compound was dissolved in 99.7% DMSO, and then the resulting solution was diluted with an artificial cerebrospinal fluid for preparation (final concentration of DMSO was 0.2%).

[4] = system: cold allodynia induced by oxaliplatin; test: Cold allodynia induced by oxaliplatin, drug on fourth day after oxaliplatin (acetone test); format: in vivo, mouse; conditions: 10 mg/kg, single oral administration, fourth day after oxaliplatin
Experimental: Oxaliplatin was dissolved in 5% glucose-containing saline and intraperitoneally administered at a dose of 2 mg/kg. A drug was administered on the fourth day after oxaliplatin administration. Male ddY mice (6 to 12 weeks old) were used. The axis of ordinates is the duration of the behavior of licking and paw waving after the application of an acetone drop (10 L) to the footpad of a hind paw.

[5] = system: cold allodynia induced by oxaliplatin; test: Onset of cold allodynia induced by oxaliplatin, drug given around oxaliplatin administration; format: in vivo, mouse; conditions: 10 mg/kg oral, 30 minutes before oxaliplatin or 3 administrations
Experimental: Oxaliplatin was dissolved in 5% glucose-containing saline and intraperitoneally administered at a dose of 2 mg/kg. Drug administration (oral administration) was performed 30 minutes before oxaliplatin administration (FIG. 7A); or 3 times: 30 minutes before oxaliplatin administration, 2.5 hours after the administration, and 5.5 hours after the administration (FIG. 7B). Male ddY mice (6 to 12 weeks old) were used. The axis of ordinates is the duration of the behavior of licking and paw waving after the application of an acetone drop (10 μL) to the footpad of a hind paw.

[6] = system: mechanical allodynia induced by spinal nerve injury; test: Spinal nerve ligation (SNL) model, repeated intraperitoneal administration, mechanical allodynia; format: in vivo, mouse
Experimental: as §1
Spinal nerve ligation (SNL) models in which the fourth lumbar cord spinal nerves of male ddY (6 to 12 weeks old) were ligated with silk thread were used. A solvent (VEH: 10% DMSO-containing saline). PA-8, the compound 2j or the compound 20 was intraperitoneally administered (30 mg/kg) 5 to 10 minutes before the ligation, and once a day for 7 days thereafter. The method of causing a mechanical stimulus is the same as that of Example 5, and data from the first day after the ligation (D1) are data 1 hour after the administration of VEH or the drugs.

PAC1 receptor = biological target: T2, PAC1 receptor (Homo sapiens, UniProt P41586); conditions: Non Patent Literature 3; cited from earlier work
T2 sequence (P41586 21-468): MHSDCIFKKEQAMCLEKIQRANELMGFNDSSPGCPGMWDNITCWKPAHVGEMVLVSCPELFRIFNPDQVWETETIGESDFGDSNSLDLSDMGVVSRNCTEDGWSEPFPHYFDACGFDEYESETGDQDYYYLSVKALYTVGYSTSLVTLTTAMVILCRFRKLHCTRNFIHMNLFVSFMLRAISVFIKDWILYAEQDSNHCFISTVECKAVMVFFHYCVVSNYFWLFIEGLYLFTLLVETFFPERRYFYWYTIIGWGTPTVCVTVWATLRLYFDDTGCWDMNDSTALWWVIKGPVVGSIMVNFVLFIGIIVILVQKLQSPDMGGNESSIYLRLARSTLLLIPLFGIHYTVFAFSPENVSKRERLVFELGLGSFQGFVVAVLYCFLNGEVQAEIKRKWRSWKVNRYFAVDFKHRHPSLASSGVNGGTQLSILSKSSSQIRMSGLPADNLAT

[7] = Non Patent Literature 4; cited from earlier work

C=CCOc1ccc(C2CC(=O)Nc3nc(N)[nH]c(=O)c32)cc1OC (stereo not shown) [PA-8, reference compound]
suppression of CREB phosphorylation by PACAP (1 nM) [1]: did not suppress CREB phosphorylation by PACAP (1 nM) | suppression of PACAP-induced spontaneous pain-like behavior ([2]; 10 pmol): suppressed the PACAP response significantly | suppression of PACAP-induced spontaneous pain-like behavior ([2]; 100 pmol): suppressed the PACAP response significantly | suppression of long-term mechanical allodynia induced by PACAP [3]: strongly suppressed | suppression of cold allodynia by oxaliplatin [4]: suppressed cold allodynia by oxaliplatin significantly over 4 to 5 hours | suppression of the onset of cold allodynia by oxaliplatin [5]: suppressed the onset of cold allodynia by oxaliplatin significantly | suppression of the onset of mechanical allodynia ([6]; 30 mg/kg i.p. before ligation and once a day for 7 days): suppressed the onset of mechanical allodynia significantly | mechanical threshold after discontinuation of administration ([6]; 30 mg/kg i.p., discontinued on the seventh day, versus VEH group): maintained the mechanical threshold highly significantly for at least 7 days thereafter | PAC1 receptor antagonistic action (PAC1 receptor): have PAC1 receptor antagonistic action | analgesic effect [7]: have analgesic effect
